Like-named read-outs stand apart in the source and are kept apart here.
What was measured:
Ctenocephalides felis = system: Ctenocephalides felis
Description: b) Ctenocephalides felis Adulticide Assay: C. felis Single Dose Screen
Mortality of fleas was the primary endpoint in the assay. Fleas were considered dead if they didn't move or were on their sides and unable to walk or right themselves. […] The concentration chosen (1.26 μg/cm^2) was higher than that known to kill 90% of cat fleas (LC90) using the reference compound, permethrin.
The test species was the cat flea (Ctenocephalides felis). The strain used was obtained from external suppliers as pupae and held in the laboratory under testing conditions until the adults had emerged. Fifteen (15) fleas were used in a minimum of four replicates against a single concentration level (approximately 60 fleas). The insects were selected to be in the adult life stage, aged between 3 and 7 days post emergence.
The compounds to be tested were supplied as solids and were prepared in acetone as described below prior to testing. Samples were stored in a refrigerator (5±1° C.) unless otherwise specified.
During the mortality testing, the temperature was maintained at 25±1° C. Humidity was maintained at 75±5%. The base (area=159 mm^2) of a 100 mL glass Erlenmeyer (conical) flask provided the treatment surface. Flasks were pretreated with Coatasil™ glass treatment to maximise bio-availability of test compounds by preventing them from binding to glass the surface. The base of the 100 mL Erlenmeyer flask was treated with 0.5 mL of test sample in acetone and gently swirled. This volume was sufficient to cover the base of the flask. Flasks were left to dry for 24 hours before flea exposure.
Adult cat fleas were placed into a sorting chamber, which allowed fleas to jump into the Erlenmeyer flasks. Fifteen (15) adult cat fleas were collected in each flask. The top of the flasks were then covered in Parafilm™ and small holes were made to allow gas exchange. A 0.5 mL volume of acetone as a solvent control was applied to the base of an Erlenmeyer flask and the testing proceeded in the same manner described above. Cat fleas in the treatment containers were held under testing conditions for 8, 24 and/or 48 hours. Mortality was recorded at 8, 24, 8 and 24, or 24 and 48 hours Pooled 8, 24, 8 and 24, and 24 and 48 hour mortality data were converted to percentages and are summarized by Table 21, below.

Rhipicephalus sanguineus = experiment: Rapid screening protocol for topical application on brown dog ticks (% mortality); conditions: data from laboratory 1
Description: d) Rapid Screening Protocol for Topical Application on Brown Dog Ticks (Rhipicephalus sanguineus)
The aim of the test was to determine the presence of significant acaricidal activity in sample compounds or formulations when applied topically on brown dog ticks. A tick was defined as dead if it gave no apparent response when touched lightly and observed for 1 minute. To assess the experimental compound for acaricidal activity, a single dose level was chosen based on known results from previous experiments with a commercially available active reference compound. Both permethrin and fipronil were employed as reference compounds. The insect species tested was the Brown Dog Tick (Rhipicephalus sanguineus). Mixed sex adult ticks were used for tests. The strain used was cultured by von Berky Veterinary Services, Woody Point, QLD, AU and supplied as unfed adult ticks (mixed sex). Ticks were maintained in controlled conditions (temp. 18°±2° C., humidity 75±5% RH).
Test compounds (formulations or active ingredients) were stored in a refrigerator (5±1° C.) unless otherwise specified. Temperature was maintained at 25±1° C. and the humidity was ambient. The screening dose chosen was higher than that known to kill 90% of insects (LD90) using the reference compound. In the case of topical application of active compounds on adult ticks, the reference compound was fipronil and the dose chosen was 10 μg of active per tick (=10 μg of fipronil/1 μl of acetone). Ticks were each treated on the abdomen with 1 μL of a single dose level of test sample in acetone; ten ticks were treated with solvent only (acetone) in each test. Tests were replicated 4 times (total of 40 ticks treated). Ticks were held in recovery containers maintained under appropriate rearing conditions for 24 hours. Mortality resulting from the treatments was recorded at 24 hours. Pooled 24 hour mortality data were converted to percentages.

With `CC(=NN(Cc1ccccc1)c1ccccc1)c1cc(Cl)ccc1NS(=O)(=O)C(F)(F)F` [Compound 22] as the molecule, how does the “C. felis Mortality (%) 8 h” value (Ctenocephalides felis) read?
The value was 98%.

What about the “C. felis Mortality (%) 24 h” value (Ctenocephalides felis) of the same molecule?
The value was 100%.

And the “R. sanguineus Mortality (%) 24 h” value (Rhipicephalus sanguineus)?
The value was 33^A %.

For `CCC(=NN(Cc1ccccc1)c1ccccc1)c1cc(Cl)ccc1NS(=O)(=O)C(F)(F)F` [Compound 24], which “C. felis Mortality (%) 8 h” value (Ctenocephalides felis) is on record?
Its value is 100%.

And the “C. felis Mortality (%) 24 h” value (Ctenocephalides felis)?
The value was 100%.

And the “R. sanguineus Mortality (%) 24 h” value (Rhipicephalus sanguineus)?
Its value is 28^A %.

Which results are given for `CC(=Nn1cnc2ccccc2c1=O)c1cc(Cl)ccc1NS(=O)(=O)C(F)(F)F` [Compound 186, N-[4-Chloro-2-(1-{4(3)-oxo-quinazolin-3-yl}imino)ethylphenyl]-trifluoromethanesulfonamide]?
C. felis Mortality (%) 8 h (Ctenocephalides felis): 2%; C. felis Mortality (%) 24 h (Ctenocephalides felis): 12%

With `C/C(=N\N1C(=O)NC(C)(C)C1=O)c1cc(Cl)ccc1NS(=O)(=O)C(F)(F)F` [Compound 187] as the molecule, how does the “C. felis Mortality (%) 8 h” value (Ctenocephalides felis; 8 h, data from laboratory 1) read?
Its value is 5%.

And the “C. felis Mortality (%) 24 h” value (Ctenocephalides felis; 24 h, data from laboratory 1)?
Its value is 19%.

With `CC(=Nn1cnc2ccccc21)c1cc(Cl)ccc1NS(=O)(=O)C(F)(F)F` [Compound 188] as the molecule, how does the “C. felis Mortality (%) 8 h” value (Ctenocephalides felis; 8 h, data from laboratory 1) read?
The value was 2%.

And the “C. felis Mortality (%) 24 h” value (Ctenocephalides felis; 24 h, data from laboratory 1)?
Its value is 7%.

What does the source list for `CC(=Nn1cc2ccccc2n1)c1cc(Cl)ccc1NS(=O)(=O)C(F)(F)F` [Compound 189]?
C. felis Mortality (%) 8 h (Ctenocephalides felis; 8 h, data from laboratory 1): 0%; C. felis Mortality (%) 24 h (Ctenocephalides felis; 24 h, data from laboratory 1): 2%

`CC(=NN(C)c1ncccn1)c1cc(Cl)ccc1NS(=O)(=O)C(F)(F)F` [Compound 190] was tested. Which “C. felis Mortality (%) 8 h” value (Ctenocephalides felis) did it give?
The value was 2%.

What about the “C. felis Mortality (%) 24 h” value (Ctenocephalides felis) of the same molecule?
The value was 15%.

With `CC(=NN1CCN(C)CC1)c1cc(Cl)ccc1NS(=O)(=O)C(F)(F)F` [Compound 191] as the molecule, how does the “C. felis Mortality (%) 8 h” value (Ctenocephalides felis; 8 h, data from laboratory 1) read?
The value was 2%.

And the “C. felis Mortality (%) 24 h” value (Ctenocephalides felis; 24 h, data from laboratory 1)?
Its value is 48%.

With `CC(=Nn1c(C)n[nH]c1=O)c1cc(Cl)ccc1NS(=O)(=O)C(F)(F)F` [Compound 192] as the molecule, how does the “C. felis Mortality (%) 8 h” value (Ctenocephalides felis; 8 h, data from laboratory 1) read?
Its value is 3%.

And the “C. felis Mortality (%) 24 h” value (Ctenocephalides felis; 24 h, data from laboratory 1)?
Its value is 5%.

Which results are given for `CC(=Nn1ncc2ccccc21)c1cc(Cl)ccc1NS(=O)(=O)C(F)(F)F` [Compound 193]?
C. felis Mortality (%) 8 h (Ctenocephalides felis; 8 h, data from laboratory 1): 2%; C. felis Mortality (%) 24 h (Ctenocephalides felis; 24 h, data from laboratory 1): 9%

What does the source list for `CC(=NN(C)c1ccc(Cl)nn1)c1cc(Cl)ccc1NS(=O)(=O)C(F)(F)F` [Compound 194]?
C. felis Mortality (%) 8 h (Ctenocephalides felis; 8 h, data from laboratory 1): 0%; C. felis Mortality (%) 24 h (Ctenocephalides felis; 24 h, data from laboratory 1): 5%

`CC(=NN(C)c1ccccn1)c1cc(Cl)ccc1NS(=O)(=O)C(F)(F)F` [Compound 195] was tested. Which “C. felis Mortality (%) 8 h” value (Ctenocephalides felis; 8 h, data from laboratory 1) did it give?
Its value is 2%.

And the “C. felis Mortality (%) 24 h” value (Ctenocephalides felis; 24 h, data from laboratory 1)?
The value was 30%.

What does the source list for `CC(=NN(C)c1ccc(Cl)cn1)c1cc(Cl)ccc1NS(=O)(=O)C(F)(F)F` [Compound 196]?
C. felis Mortality (%) 8 h (Ctenocephalides felis; 8 h, data from laboratory 1): 3%; C. felis Mortality (%) 24 h (Ctenocephalides felis; 24 h, data from laboratory 1): 32%

What does the source list for `CC(=NN(C)c1cccc(Cl)n1)c1cc(Cl)ccc1NS(=O)(=O)C(F)(F)F` [Compound 197]?
C. felis Mortality (%) 8 h (Ctenocephalides felis; 8 h, data from laboratory 1): 7%; C. felis Mortality (%) 24 h (Ctenocephalides felis; 24 h, data from laboratory 1): 23%

For `CC(=NN(C)c1ccc2ccccc2n1)c1cc(Cl)ccc1NS(=O)(=O)C(F)(F)F` [Compound 198], which “C. felis Mortality (%) 8 h” value (Ctenocephalides felis; 8 h, data from laboratory 1) is on record?
The value was 2%.

And the “C. felis Mortality (%) 24 h” value (Ctenocephalides felis; 24 h, data from laboratory 1)?
The value was 25%.

What does the source list for `CC(=Nn1c(=O)[nH]nc(C)c1=O)c1cc(Cl)ccc1NS(=O)(=O)C(F)(F)F` [Compound 199]?
C. felis Mortality (%) 8 h (Ctenocephalides felis; 8 h, data from laboratory 1): 3%; C. felis Mortality (%) 24 h (Ctenocephalides felis; 24 h, data from laboratory 1): 3%

Which “C. felis Mortality (%) 8 h” value (Ctenocephalides felis; 8 h, data from laboratory 1) does the source give for `CCCN(N=C(C)c1cc(Cl)ccc1NS(=O)(=O)C(F)(F)F)c1cccc(Cl)c1Cl` [Compound 200] here?
The value was 2%.

What about the “C. felis Mortality (%) 24 h” value (Ctenocephalides felis; 24 h, data from laboratory 1) of the same molecule?
The value was 58%.

For `CC(=Nn1c(C)nc2ccccc2c1=O)c1cc(Cl)ccc1NS(=O)(=O)C(F)(F)F` [Compound 201], which “C. felis Mortality (%) 8 h” value (Ctenocephalides felis; 8 h, data from laboratory 1) is on record?
The value was 2%.

And the “C. felis Mortality (%) 24 h” value (Ctenocephalides felis; 24 h, data from laboratory 1)?
The value was 10%.

What does the source list for `CC(=NN(CCC#N)CCC#N)c1cc(Cl)ccc1NS(=O)(=O)C(F)(F)F` [Compound 202]?
C. felis Mortality (%) 8 h (Ctenocephalides felis; 8 h, data from laboratory 1): 3%; C. felis Mortality (%) 24 h (Ctenocephalides felis; 24 h, data from laboratory 1): 24%

How did the “C. felis Mortality (%) 8 h” value (Ctenocephalides felis; 8 h, data from laboratory 1) turn out when `CC(=NN(C)c1ccccc1C(F)(F)F)c1cc(Cl)ccc1NS(=O)(=O)C(F)(F)F` [Compound 204] was run?
The value was 6%.

What about the “C. felis Mortality (%) 24 h” value (Ctenocephalides felis; 24 h, data from laboratory 1) of the same molecule?
The value was 11%.
